Results from ChEMBL document CHEMBL1142200, “Efficacy of delayed treatment with ST-246 given orally against systemic orthopoxvirus infections in mice” (Antimicrob Agents Chemother, 2007).
Activity calls are given as the source filed them. The rule behind the calls is not given here.

Experiments:
Ectromelia virus [1] = experiment: Reduction of Ectromelia virus replication in BALB/c mouse nasal wash at 100 mg/kg, po once daily after 8 days; assay type: functional, organism-based; design: dose 100 mg/kg
[2] = Selectivity index, ratio of CC50 for HFF cells to EC50 for Cowpox virus Brighton infected HFF cells; assay type: functional
Ectromelia virus [3] = experiment: Reduction of Ectromelia virus replication in BALB/c mouse liver at 100 mg/kg, po once daily after 14 days; assay type: functional, organism-based; design: dose 100 mg/kg
Cowpox virus [4] = experiment: Reduction of Cowpox virus BR replication in BALB/c mouse kidney at 50 mg/kg after 24 hrs of viral infection, po for 9 days; assay type: functional, organism-based; design: dose 50 mg/kg
Ectromelia virus [5] = experiment: Reduction of Ectromelia virus replication in BALB/c mouse spleen at 100 mg/kg, po once daily after 6 days; assay type: functional, organism-based; design: dose 100 mg/kg
Mus musculus [6] = experiment: Effect on mortality of BALB/c mouse inoculated with Cowpox virus at 100 mg/kg after 48 hrs of viral infection, po once daily for 14 days relative to control; assay type: functional
Vaccinia virus = experiment: Reduction of Vaccinia virus WR replication in BALB/c mouse spleen at 50 mg/kg after 24 hrs of viral infection, po for 9 days; assay type: functional, organism-based; design: dose 50 mg/kg; conditions: Orthopoxvirus vaccinia
Ectromelia virus [7] = experiment: Reduction of Ectromelia virus replication in BALB/c mouse esophagus at 100 mg/kg, po once daily after 6 days; assay type: functional, organism-based; design: dose 100 mg/kg
Ectromelia virus [8] = experiment: Reduction of Ectromelia virus replication in BALB/c mouse esophagus at 100 mg/kg, po once daily after 14 days; assay type: functional, organism-based; design: dose 100 mg/kg
Mus musculus [9] = experiment: Effect on mortality of A/NCr mouse inoculated with 410 PFU ectromelia virus at 100 mg/kg after 24 hrs of viral infection, po twice daily for 14 days; assay type: functional
Ectromelia virus [10] = experiment: Reduction of Ectromelia virus replication in BALB/c mouse nasal wash at 100 mg/kg, po once daily after 6 days; assay type: functional, organism-based; design: dose 100 mg/kg
Ectromelia virus [11] = experiment: Reduction of Ectromelia virus replication in BALB/c mouse lung at 100 mg/kg, po once daily after 14 days; assay type: functional, organism-based; design: dose 100 mg/kg
Mus musculus [12] = experiment: Effect on mortality of BALB/c mouse inoculated with Cowpox virus BR at 100 mg/kg after 4 hrs of viral infection, po once daily for 14 days relative to control; assay type: functional
Mus musculus [13] = experiment: Effect on mortality of BALB/c mouse inoculated with Vaccinia virus WR at 50 mg/kg after 24 hrs of viral infection, po for 9 days; assay type: functional, organism-based; design: dose 50 mg/kg
Cowpox virus [14] = experiment: Reduction of Cowpox virus BR replication in BALB/c mouse lung at 50 mg/kg after 24 hrs of viral infection, po for 9 days; assay type: functional, organism-based; design: dose 50 mg/kg
Mus musculus [15] = experiment: Effect on mortality of BALB/c mouse inoculated with Cowpox virus at 10 mg/kg after 24 hrs of viral infection, po once daily for 14 days relative to control; assay type: functional
Mus musculus [16] = experiment: Effect on mortality of A/NCr mouse inoculated with 41 PFU ectromelia virus at 100 mg/kg after 24 hrs of viral infection, po twice daily for 14 days; assay type: functional
Ectromelia virus [17] = experiment: Reduction of Ectromelia virus replication in BALB/c mouse esophagus at 100 mg/kg, po once daily after 8 days; assay type: functional, organism-based; design: dose 100 mg/kg
Mus musculus [18] = experiment: Effect on mortality of BALB/c mouse inoculated with Cowpox virus at 30 mg/kg after 4 hrs of viral infection, po once daily for 14 days relative to control; assay type: functional
Ectromelia virus [19] = experiment: Reduction of Ectromelia virus replication in BALB/c mouse trachea at 100 mg/kg, po once daily after 6 days; assay type: functional, organism-based; design: dose 100 mg/kg
Mus musculus [20] = experiment: Effect on mortality of BALB/c mouse inoculated with Cowpox virus at 100 mg/kg after 24 hrs of viral infection, po once daily for 14 days relative to control; assay type: functional
Mus musculus [21] = experiment: Effect on mortality of A/NCr mouse inoculated with ectromelia virus at 100 mg/kg after 48 hrs of viral infection, po once daily for 10 days relative control; assay type: functional
Ectromelia virus [22] = experiment: Reduction of Ectromelia virus replication in BALB/c mouse trachea at 100 mg/kg, po once daily after 14 days; assay type: functional, organism-based; design: dose 100 mg/kg
Mus musculus [23] = experiment: Effect on mortality of BALB/c mouse inoculated with Vaccinia virus WR at 100 mg/kg after 4 hrs of viral infection, po once daily for 5 days relative to control; assay type: functional
Mus musculus [24] = experiment: Effect on mortality of BALB/c mouse inoculated with Cowpox virus BR at 100 mg/kg after 4 hrs of viral infection, po once daily for 5 days relative to control; assay type: functional
Mus musculus [25] = experiment: Effect on mortality of A/NCr mouse inoculated with 4100 PFU ectromelia virus at 100 mg/kg after 24 hrs of viral infection, po twice daily for 14 days; assay type: functional
Ectromelia virus [26] = experiment: Reduction of Ectromelia virus replication in BALB/c mouse liver at 100 mg/kg, po once daily after 8 days; assay type: functional, organism-based; design: dose 100 mg/kg
Mus musculus [27] = experiment: Effect on mortality of BALB/c mouse inoculated with Vaccinia virus WR at 100 mg/kg after 4 hrs of viral infection, po once daily for 7 days relative to control; assay type: functional
Mus musculus [28] = experiment: Effect on mortality of A/NCr mouse inoculated with ectromelia virus at 100 mg/kg after 24 hrs of viral infection, po once daily for 10 days relative control; assay type: functional
Ectromelia virus [29] = experiment: Reduction of Ectromelia virus replication in BALB/c mouse nasal wash at 100 mg/kg, po once daily after 14 days; assay type: functional, organism-based; design: dose 100 mg/kg
Ectromelia virus [30] = experiment: Reduction of Ectromelia virus replication in BALB/c mouse trachea at 100 mg/kg, po once daily after 8 days; assay type: functional, organism-based; design: dose 100 mg/kg
Mus musculus [31] = experiment: Effect on mortality of BALB/c mouse inoculated with Vaccinia virus WR at 100 mg/kg after 24 hrs of viral infection, po once daily for 14 days relative to control; assay type: functional
[32] = Cytotoxicity against HFF cells; assay type: cell-based; conditions: human
Mus musculus [33] = experiment: Effect on mortality of BALB/c mouse inoculated with Cowpox virus at 30 mg/kg after 48 hrs of viral infection, po once daily for 14 days relative to control; assay type: functional
Mus musculus [34] = experiment: Effect on mortality of BALB/c mouse inoculated with Cowpox virus BR at 100 mg/kg after 24 hrs of viral infection, po once daily for 7 days relative to control; assay type: functional
Mus musculus [35] = experiment: Effect on mortality of BALB/c mouse inoculated with Cowpox virus at 30 mg/kg after 72 hrs of viral infection, po once daily for 14 days relative to control; assay type: functional
Mus musculus [36] = experiment: Effect on mortality of A/NCr mouse inoculated with ectromelia virus at 100 mg/kg after 0 hrs of viral infection, po once daily for 10 days relative control; assay type: functional
Mus musculus [37] = experiment: Effect on mortality of BALB/c mouse inoculated with Cowpox virus BR at 50 mg/kg after 24 hrs of viral infection, po for 9 days; assay type: functional, organism-based; design: dose 50 mg/kg
Mus musculus [38] = experiment: Effect on mortality of BALB/c mouse inoculated with Vaccinia virus WR at 100 mg/kg after 4 hrs of viral infection, po once daily for 14 days relative to control; assay type: functional
Mus musculus [39] = experiment: Effect on mortality of BALB/c mouse inoculated with Vaccinia virus WR at 100 mg/kg after 24 hrs of viral infection, po once daily for 5 days relative to control; assay type: functional
Mus musculus [40] = experiment: Effect on mortality of BALB/c mouse inoculated with Cowpox virus at 10 mg/kg after 4 hrs of viral infection, po once daily for 14 days relative to control; assay type: functional
Mus musculus [41] = experiment: Effect on mortality of BALB/c mouse inoculated with Cowpox virus at 10 mg/kg after 72 hrs of viral infection, po once daily for 14 days relative to control; assay type: functional

O=C(NN1C(=O)[C@@H]2[C@@H]3C=C[C@@H]([C@H]4C[C@@H]34)[C@@H]2C1=O)c1ccc(C(F)(F)F)cc1 [TECOVIRIMAT]
Activity (Ectromelia virus [1]): inactive | Ratio CC50/EC50 [2]: >208 | Activity (Ectromelia virus [3]): Active | Activity (Cowpox virus [4]): Active | Activity (Ectromelia virus [5]): Active | Activity (Mus musculus [6]): 7% | Activity (Vaccinia virus): Active | Activity (Ectromelia virus [7]): Active | Activity (Ectromelia virus [8]): Active | Activity (Mus musculus [9]): 0% | Activity (Ectromelia virus [10]): inactive | Activity (Ectromelia virus [11]): Active | Activity (Mus musculus [12]): 7% | Activity (Mus musculus [13]): Active | Activity (Cowpox virus [14]): Active | Activity (Mus musculus [15]): 73% | Activity (Mus musculus [16]): 0% | Activity (Ectromelia virus [17]): Active | Activity (Mus musculus [18]): 50% | Activity (Ectromelia virus [19]): Active | Activity (Mus musculus [20]): 27% | Activity (Mus musculus [21]): 0% | Activity (Ectromelia virus [22]): Active | Activity (Mus musculus [23]): 13% | Activity (Mus musculus [24]): 87% | Activity (Mus musculus [25]): 0% | Activity (Ectromelia virus [26]): Active | Activity (Mus musculus [27]): 20% | Activity (Mus musculus [28]): 0% | Activity (Ectromelia virus [29]): Active | Activity (Ectromelia virus [30]): Active | Activity (Mus musculus [31]): 7% | CC50 [32]: > 100 µM | Activity (Mus musculus [33]): 20% | Activity (Mus musculus [34]): 40% | Activity (Mus musculus [35]): 40% | Activity (Mus musculus [36]): 0% | Activity (Mus musculus [37]): Active | Activity (Mus musculus [38]): 20% | Activity (Mus musculus [39]): 7% | Activity (Mus musculus [40]): 92% | Activity (Mus musculus [41]): 47%
